# Test results as given in ChEMBL document CHEMBL3507680, “University of Dundee, Gates Library screen for HepG2 cell viability”.
# Test: Human HepG2 cell viability assay in 384 well format
# Type: toxicity, cell-based
# Set-up: dose 125 nL, time 70.5 hour; concentration not given beside the values
# Conditions: HepG2 cells, read-out: Inhibition
row,Structure (SMILES),cytotoxicity at 70.5 h [%]
1,c1ccc(OCc2nc(CNCCn3cccn3)cs2)cc1,27
2,O=C(CC[C@@H]1CCCN2CCCC[C@H]12)N1CCC(c2nnc[nH]2)CC1,-7.68
3,CCOC(=O)C1CCN(C(=O)CN2CCCC2c2ccsc2)CC1 (stereo not drawn),-3.85
4,O=C(Nc1cnccn1)[C@@H]1COC[C@H]2CN(C3CCCC3)C[C@H]21,-3.18
5,Cn1cc(C[C@H]2[C@H](N3CCOCC3)CCN2C(=O)c2ccoc2)cn1,-16.3
6,CSCc1cc(F)ccc1CNC(=O)N1CCOCC1,-10.7
7,COc1ccc(C(N)c2cccc(S(C)(=O)=O)c2)cc1 (stereo not drawn),-1.22
8,O=C(c1cocn1)N1CCC[C@]2(C[C@@H](Oc3ncccc3F)CO2)C1,-5.09
9,CN(Cc1ccco1)[C@@H]1CN(Cc2ccsc2)C[C@@H]2CCCO[C@@H]21,2.78
10,O=C(Nc1cccs1)N1CC(c2nc(C3CC3)no2)C1,-5.71
11,COc1ccc(OC2CCN(c3ccncc3)CC2)cc1,-3.12
12,COCCc1nnc(NC(=O)Cc2ccccc2Cl)o1,-13.9
13,CCOC(=O)CNC(=O)c1cccnc1Oc1ccc(Cl)cc1,-9.7
14,Cc1nccn1C1CCCN(C(=O)c2ccc3c(c2)NC(=O)CO3)C1 (stereo not drawn),-5.24
15,O=C(c1cc[nH]n1)N1CCCC1c1cnccn1 (stereo not drawn),-10.5
16,CCC[C@@H]1CN(C(=O)c2cnc3ccccc3c2)C[C@H]1NS(C)(=O)=O,-1.26
17,CC(=O)N1CCN(C(=O)c2c(Cl)c3ccccc3n2C)CC1,-7.65
18,CCOCC(O)CN1CCN(C(=O)c2cc(F)cc(F)c2)CC1 (stereo not drawn),-2.71
19,O=C(c1ccc(O)cc1)N1C[C@@H]2CCN(c3cccnc3)C[C@@H]2C1,22.7
20,Cc1nnc2n1CCN(Cc1csc(-c3ccc(F)cc3)n1)C2,-12.1
21,COCCC1(C(=O)O)CCN(c2cc(C)c3ccccc3n2)CC1,18.8
22,Cc1cn2nc(N(C)C3CCCN(c4cccnn4)C3)sc2n1 (stereo not drawn),-11.5
23,CC(C)NC(=O)NCc1ccnc(N(C)C)n1,-6.75

row,Structure (SMILES),cytotoxicity at 70.5 h [%]
1,CCn1c(=O)n(CCC(=O)N(C)Cc2ccc(C)o2)c2ccccc21,-4.18
2,Nc1ncccc1CN1CCOCC1CC(=O)NCc1ccccn1 (stereo not drawn),19.3
3,COCCN1CCC2(CCCN(C(=O)c3cnoc3C)C2)C1=O (stereo not drawn),-0.05
4,CC(C)Cn1cncc1CNC(=O)c1cccc(Cn2cccn2)c1,-5.12
5,CCCc1nc(C(=O)NCCN2CCC(c3ccccc3C)C2)cs1 (stereo not drawn),0.739
6,CS(=O)(=O)N1Cc2cnn(CC3CC3)c2C(COCC2CC2)C1 (stereo not drawn),-6.21
7,CC(=O)N[C@H]1CCO[C@@H](c2cccc(NC(=O)c3cccc(F)c3)c2)C1,-8.41
8,COC(=O)N1CCCN(C(=O)NC2CCc3ccccc3C2)CC1 (stereo not drawn),-1.7
9,CC1=N[C@@]2(CC[C@@H]3CN(S(=O)(=O)N(C)C)C[C@@H]32)C(=O)N1CC(C)C,-7.17
10,O=C(c1cnc(C2CC2)nc1O)N1CCN(Cc2ccccc2F)CC1,0.38
11,COc1ccc(CCCN2C(=O)O[C@@H]3CN(C4CCOCC4)C[C@@H]32)cc1,-3.64
12,Cn1nnc2c1C(COCc1ccccn1)CN(C(=O)c1cccs1)C2 (stereo not drawn),5.64
13,Cc1cnc(-c2nc(-c3cccc(CN4CCOCC4)c3)no2)cn1,-4.86
14,CN(C)c1nc(CNC(=O)NC2CCc3ccccc32)cs1 (stereo not drawn),-0.66
15,CC(Sc1nnnn1C1CCOCC1)C(=O)NC1CCCCC1 (stereo not drawn),-3.49
16,CCC(=O)N1CCCC(C(=O)NCc2noc(Cc3ccccc3)n2)C1 (stereo not drawn),-12.1
17,COC(=O)CNCC1(O)CCCN(Cc2cccc(F)c2F)C1=O (stereo not drawn),-0.438
18,CCc1nnc(CN(CC)C(=O)C2CC(=O)N(CC)C2)o1 (stereo not drawn),-1.3
19,O=C(c1ccc2c(c1)OCO2)N1CCC(Nc2cccnn2)CC1,9.12
20,CN(CC(=O)N1CCC(C(O)c2ccccc2)CC1)c1cnccn1 (stereo not drawn),-20.6
21,CCOc1cc(/C=C/c2ncc(C(=O)O)s2)ccc1O,0.103
22,CN1C[C@H](c2ccccc2)[C@H]2CN(C(=O)Cc3ccc(O)cc3)CC[C@H]21,22.7
23,O=C(COc1coc(CN2CCCCC2)cc1=O)NCc1ccccc1,-15.4

row,Structure (SMILES),cytotoxicity at 70.5 h [%]
1,COc1ccc(CNCC2CN(C3CC3)CCO2)cc1C (stereo not drawn),-4.72
2,COc1ccc(CC(=O)NCCNS(=O)(=O)c2ccc(C)cc2)cc1,2.16
3,CCCc1nc(CNC2(c3nccs3)CCCC2)cs1,4.59
4,CC(=O)N1CC2(CCN(C(=O)CO)CC2)c2cc(C)ccc21,-4.93
5,Cc1c(C(=O)N2CC(O)C2)nnn1-c1cccc2cnccc12,-8.03
6,Cc1cc(CNS(C)(=O)=O)ccc1N(C)C,-7.39
7,COc1ccccc1CN1CCCC2(Cc3ccccc3CNC2=O)C1 (stereo not drawn),-1.54
8,CN1CCN(C(=O)c2ccnc(N3CCOC(C(F)(F)F)C3)c2)CC1 (stereo not drawn),19
9,CCc1cnc(CN(C(C)=O)C2CCN(CC3(O)CCCCC3)C2)o1 (stereo not drawn),13.4
10,COCCN1CCC2(CCC(=O)N2Cc2csc(C)n2)CC1,-7.09
11,Cc1c(C(=O)N2CCNC(=O)C2)sc2nc[nH]c(=O)c12,13.4
12,Cc1nn(C)c(N(C)C)c1CNCc1ccccc1Cn1ccnc1,-1.82
13,Cc1cccc2c1nc(COCC(=O)O)n2-c1ccsc1,-4.32
14,COc1ccccc1CC(=O)N1CC[C@H](O)[C@]2(CCCO2)C1,-6.73
15,CN(C)c1ccc(C(=O)NCC2(O)CCOCC2)cc1,-8.78
16,Cc1nsc(N2CCCN(c3ccc(C#N)cn3)CC2)n1,-0.603
17,Cc1csc(CCNC(=O)NC(C)Cn2cccn2)n1 (stereo not drawn),19
18,Cn1ccc(C(=O)NCc2ccccc2Cn2ccnc2)cc1=O,-8.24
19,Cc1nc(C)n(Cc2cccc(NC(=O)NC(C)(CO)C3CC3)c2)n1 (stereo not drawn),-6.87
20,Fc1ccc(CN2CCCC(c3nccnc3-n3ccnc3)C2)cc1 (stereo not drawn),3.95
21,CC1c2ncc(CNC(=O)C3CC3)n2CCN1Cc1cnn(C)c1 (stereo not drawn),-12
22,CCc1nc(CCn2ccc3nc(OC)c(C#N)cc3c2=O)no1,-4.1
23,O=C1N(Cc2cccc(F)c2)CCC12CCCNC2 (stereo not drawn),-13.6

row,Structure (SMILES),cytotoxicity at 70.5 h [%]
1,CN(CCN1CCCCCC1)C(=O)c1cc(CN2CCCC(O)C2)on1 (stereo not drawn),-10.1
2,COc1cc(C)cc(OC)c1C(C(=O)O)N(C)Cc1c(C)nn(C)c1C (stereo not drawn),-14.7
3,Cc1nc(C)c(C(=O)NCCNc2ncccc2C(F)(F)F)s1,-7.63
4,CCc1noc(CS(=O)(=O)c2cccc(OC)c2)n1,4.71
5,CN(C)CCN(Cc1cccc(F)c1)C(=O)c1ccn(C)c(=O)c1,-2.08
6,COCc1cncc2c1CCN(Cc1cccnc1)C2,-3.24
7,Cc1nccn1C1CCCN(C(=O)c2ccnc(-n3ccnc3)c2)C1 (stereo not drawn),10.7
8,COc1nn(C)c2c1CCCN(C(=O)c1ccccc1)C2,-5.54
9,CC(C)N1CCCC1c1cc(CCO)[nH]n1 (stereo not drawn),-9.45
10,Cc1nn(C)cc1-c1nn2c(C(F)(F)F)nnc2s1,-9.41
11,CCc1c(C)nn2c(O)cc(C3CCN(C(=O)c4cnn(C)c4)C3)nc12 (stereo not drawn),-0.531
12,CN(C)C(=O)c1ccc(CNC(=O)NCCN(C)C2CCCC2)cc1,-13
13,CCOCCC1(CNC(=O)c2ccncc2Cl)CCC1,-2.65
14,O=C(c1ccco1)N1CCCC(c2cc(C(F)(F)F)n3ncnc3n2)C1 (stereo not drawn),28.3
15,O=C(Cc1ccc2c(c1)OCC2)Nc1nn[nH]n1,-8.8
16,CN(C)CCCn1cnc2cc(NC(=O)c3n[nH]c4c3CCC4)ccc21,-4.15
17,COCCn1cc(C(=O)N2CCCC2c2cnn(C)c2)ccc1=O (stereo not drawn),-6.63
18,CN(Cc1nnc(C2CC2)o1)C1CCN(CCCc2cnn(C)c2)C1 (stereo not drawn),6.71
19,CC(C)CC(=O)N1CC(=O)c2sc(Nc3ccc(F)cc3)nc2C1,1.95
20,CC(C)c1nc(CCN(C)C(=O)C2COc3ccccc3C2)no1 (stereo not drawn),-3.01
21,COc1cccc(C(=O)N2CCOC3(CCCN(C(C)=O)C3)C2)c1 (stereo not drawn),-16.1
22,COCCC1CCN(CC(C)n2cnc3ccccc32)CC1 (stereo not drawn),-17.3
23,NC(=O)C1CCN(c2ccc3cc(Br)ccc3n2)C1 (stereo not drawn),-89.2

row,Structure (SMILES),cytotoxicity at 70.5 h [%]
1,FC1(F)CCN(Cc2ccncc2)CC12CCN(c1cnccn1)C2 (stereo not drawn),-8.66
2,Clc1cc(Cl)cc(CN2CCC(NCc3ncc[nH]3)CC2)c1,-4.36
3,Cc1nc(NCCc2noc(C3CCCO3)n2)c2sccc2n1 (stereo not drawn),49.7
4,O=C(C1CCC1)N1CCC(C(=O)N2CCC(c3ccc(F)cc3)C2)CC1 (stereo not drawn),3.33
5,CC(C)(C)c1n[nH]c(C2CN(C(=O)c3ccsc3)CCO2)n1 (stereo not drawn),-16.5
6,CS(=O)(=O)N1CCOCC2(CN(Cc3ccsc3)CCO2)C1 (stereo not drawn),0.00349
7,CC1c2ncc(COc3cccnc3)n2CCN1C(=O)C1=CCCC1 (stereo not drawn),-9.18
8,Cn1nccc1-c1ncc2c(c1C(=O)O)CCN(Cc1ccncc1)C2,-0.712
9,Cc1cc(OC(F)F)c(C(=O)N2CCC(N(C)C)CC2)s1,31.3
10,Cc1nc(C2CCN(C(=O)c3cscn3)CC2)c2sccn12,-1.33
11,COc1ccc(C)cc1CC(=O)Nc1cc(C)n[nH]1,-8.99
12,COc1ccccc1CN1CC(OC)CN(C(=O)CC(C)C)CC1=O (stereo not drawn),-5.03
13,CCC(C)(NCC(=O)NC(C)C)c1nccs1 (stereo not drawn),-3.03
14,Cc1cccc(OCC(=O)NS(=O)(=O)Cc2ccccc2)c1,-5.52
15,O=C(NCc1ccnc(OCC(F)(F)F)c1)NCC1COCCO1 (stereo not drawn),-6.7
16,COCCN(Cc1ccccn1)C(=O)CC1OCCc2sccc21 (stereo not drawn),-9.62
17,CCCOC1CCCN(C(=O)c2csc(S(N)(=O)=O)c2)C1 (stereo not drawn),9.57
18,CN(C)CCN(C)C[C@@H]1CN(C(=O)NC2CCCC2)C[C@@H]1CO,-8.45
19,Oc1cccc(CNCCC2CCCO2)c1 (stereo not drawn),-12.5
20,CN1CCN([C@@H]2CCN(C(N)=O)[C@H]2Cc2ccccc2)CC1,-0.0899
21,CCCn1cc(-c2cc(-c3cc(CC)n[nH]3)c(C#N)c(N)n2)c(C)n1,-3.18
